# Test system: not listed separately
# Experiment: Inhibition of Cy3-labeled mouse preE-let-7f-1 miRNA binding to human LIN28A (16 to 187 residues) expressed in Escherichia coli BL21 (DE3) at 75 uM preincubated for 2 hrs followed by miRNA addition and measured after 15 mins by electrophoretic mobility shift assay relative to control
row,SMILES,inhibition [%]
1,CCOc1cccc2c1N[C@@H](C(=O)O)[C@H]1CC=C[C@@H]21,86
2,CCOc1cccc2c1N[C@@H](c1ccc([N+](=O)[O-])cc1)[C@H]1CC=C[C@@H]21,< 5
3,CCOc1cccc2c1N[C@@H](c1ccc(C#N)cc1)[C@H]1CC=C[C@@H]21,< 5
4,CCOC(=O)[C@@H]1Nc2c(OCC)cccc2[C@@H]2C=CC[C@H]12,< 5
5,CCOc1cccc2c1N[C@@H](c1cccnc1)[C@H]1CC=C[C@@H]21,< 5
6,CCOc1cccc2c1N[C@@H](c1cccc(O)c1)[C@H]1CC=C[C@@H]21,< 5
7,CCOc1cccc2c1N[C@@H](c1ccc(C(F)(F)F)cc1)[C@H]1CC=C[C@@H]21,< 5

# Results, then the compound that gave them:
row,inhibition [%],SMILES
1,< 5,N#Cc1ccc2c(c1)[C@@H]1C=CC[C@@H]1[C@H](c1ccc(C(=O)O)cc1)N2
2,< 5,CC(=O)c1ccc2c(c1)N[C@@H](c1ccc(C(=O)O)cc1)[C@H]1CC=C[C@@H]21
3,53,CCOc1cccc2c1N[C@@H](c1ccc(C(=O)O)cc1)[C@H]1CC=C[C@@H]21
4,< 5,COc1cccc2c1N[C@@H](c1ccc(C(=O)O)cc1)[C@H]1CC=C[C@@H]21
5,< 5,CCOc1cccc2c1N[C@@H](c1ccc(C(=O)OC)cc1)[C@H]1CC=C[C@@H]21
6,< 5,CC(=O)c1ccc2c(c1)[C@@H]1C=CC[C@@H]1[C@H](c1ccc(C(=O)O)cc1)N2
7,< 5,CC(C)Oc1cccc2c1N[C@@H](c1ccc(C(=O)O)cc1)[C@H]1CC=C[C@@H]21
8,86,CCOc1cccc2c1N[C@@H](c1cccc(C(=O)O)c1)[C@H]1CC=C[C@@H]21
9,34,O=C(O)c1ccc([C@@H]2Nc3c(Cl)cc(Cl)cc3[C@@H]3C=CC[C@@H]32)cc1
10,< 5,COc1cc2c(c(OC)c1OC)[C@@H]1C=CC[C@@H]1[C@H](c1ccc(C(=O)O)cc1)N2

# Test system: not listed separately
# Experiment: Inhibition of Cy3-labeled mouse preE-let-7f-1 miRNA binding to human LIN28A (16 to 187 residues) expressed in Escherichia coli BL21 (DE3) preincubated for 2 hrs followed by miRNA addition and measured after 15 mins by electrophoretic mobility shift assay
row,SMILES,IC50 [µM]
1,CCOc1cccc2c1N[C@@H](C(=O)O)[C@H]1CC=C[C@@H]21,21.5
2,CCOc1cccc2c1N[C@@H](c1ccc(C(=O)O)cc1)[C@H]1CC=C[C@@H]21,41.6
3,CCOc1cccc2c1N[C@@H](c1cccc(C(=O)O)c1)[C@H]1CC=C[C@@H]21,21.9

# Test system: not listed separately
# Experiment: Inhibition of FAM-labeled mouse preE-let-7f-1 miRNA binding to human LIN28A (16 to 187 residues) expressed in Escherichia coli BL21 (DE3) preincubated for 30 mins followed by miRNA addition by fluorescence polarization assay
row,SMILES,IC50 [µM]
1,CCOc1cccc2c1N[C@@H](c1cccc(C(=O)O)c1)[C@H]1CC=C[C@@H]21,4

# Test system: JAR
# Experiment: Antiproliferative activity against human JAR cells assessed as reduction in cell viability at 10 uM by MTT assay
# Format: functional
row,SMILES,inhibition at 10 µM [%]
1,CCOc1cccc2c1N[C@@H](C(=O)O)[C@H]1CC=C[C@@H]21,< 10
2,CCOc1cccc2c1N(C(C)=O)[C@@H](c1ccc(C(=O)O)cc1)[C@H]1CCCN[C@@H]21,19
3,CCOc1cccc2c1N(C(C)=O)[C@@H](c1ccc(C(=O)O)cc1)[C@H]1CCCN(C(=O)OC(C)(C)C)[C@@H]21,35
4,O=C(O)c1cccc([C@@H]2Nc3c(OC(F)(F)F)cccc3[C@@H]3C=CC[C@@H]32)c1,20
5,CCOc1cccc2c1N[C@@H](c1ccc(C(=O)O)cc1)[C@H]1CC=C[C@@H]21,< 10
6,CCOc1cccc2c1N[C@@H](c1ccc(C(=O)O)[nH]1)[C@H]1CC=C[C@@H]21,23
7,CCOc1cccc2c1N(C(C)=O)[C@@H](c1cccc(C(=O)O)c1)[C@H]1CC=C[C@@H]21,31
8,CCOc1cccc2c1N[C@@H](c1cccc(C(=O)O)c1)[C@H]1CC=C[C@@H]21,< 10

# Test system: not listed separately
# Experiment: Inhibition of FAM-labeled mouse preE-let-7f-1 miRNA binding to human LIN28A (16 to 187 residues) expressed in Escherichia coli BL21 (DE3) by fluorescence polarization assay
row,SMILES,IC50 [µM]
1,CCOc1cccc2c1N[C@H](c1ccc(C(=O)O)cc1)[C@@H]1CC=C[C@H]21,40
2,CCOc1cccc2c1N[C@@H](c1ccc(C(=O)O)cc1)[C@H]1CC=C[C@@H]21,50
